In patent US12290596B2, “Compositions and methods for the treatment of opioid overdose” (priority 2021, dated 2025):

Test: Three-treatment crossover pharmacokinetics of IN nalmefene, three dosing regimens (Example 13)
Conditions: human, plasma, […]
[1] = other: intranasal (IN spray), 6 mg, Mean, T3: 6 mg nalmefene HCl IN, two 0.1 mL sprays in one nostril
[2] = other: intranasal (IN spray), 6 mg, Median, T3: 6 mg nalmefene HCl IN, two 0.1 mL sprays in one nostril

**Q.** What does the source list for `C=C1CC[C@@]2(O)[C@H]3Cc4ccc(O)c5c4[C@@]2(CCN3CC2CC2)[C@H]1O5` [Nalmefene, 17-cyclopropylmethyl-4,5α-epoxy-6-methylenemorphinan-3,14-diol]?
**A.** concentration at 0 h (other: intranasal (IN spray), 6 mg, Mean, Time 0.00, T3: 6 mg nalmefene HCl IN, two 0.1 mL sprays in one nostril): 0 ng/mL; concentration at 2.5 min (other: intranasal (IN spray), 6 mg, Mean, Time 0.0416, T3: 6 mg nalmefene HCl IN, two 0.1 mL sprays in one nostril): 1.35 ng/mL; concentration at […] (other: intranasal (IN spray), 6 mg, Mean, Time 0.0833, T3: 6 mg nalmefene HCl IN, two 0.1 mL sprays in one nostril): 5.05 ng/mL; concentration at […] (other: intranasal (IN spray), 6 mg, Mean, Time 0.166, T3: 6 mg nalmefene HCl IN, two 0.1 mL sprays in one nostril): 14.1 ng/mL; concentration at […] (other: intranasal (IN spray), 6 mg, Mean, Time 0.250, T3: 6 mg nalmefene HCl IN, two 0.1 mL sprays in one nostril): 16.9 ng/mL; concentration at […] (other: intranasal (IN spray), 6 mg, Mean, Time 0.333, T3: 6 mg nalmefene HCl IN, two 0.1 mL sprays in one nostril): 14.6 ng/mL; concentration at […] (other: intranasal (IN spray), 6 mg, Mean, Time 0.750, T3: 6 mg nalmefene HCl IN, two 0.1 mL sprays in one nostril): 9.92 ng/mL; concentration at 1 h (other: intranasal (IN spray), 6 mg, Mean, Time 1.00, T3: 6 mg nalmefene HCl IN, two 0.1 mL sprays in one nostril): 9.59 ng/mL; concentration at 2 h [1]: 8.86 ng/mL; concentration at 3 h [1]: 6.9 ng/mL; concentration at 4 h [1]: 5.37 ng/mL; concentration at 6 h [1]: 3.69 ng/mL; concentration at 8 h [1]: 2.69 ng/mL; concentration at 12 h [1]: 1.93 ng/mL; concentration at 18 h [1]: 1.11 ng/mL; concentration at 24 h [1]: 0.792 ng/mL; concentration at 48 h [1]: 0.182 ng/mL; concentration at 0 h (other: intranasal (IN spray), 6 mg, Median, Time 0.00, T3: 6 mg nalmefene HCl IN, two 0.1 mL sprays in one nostril): 0 ng/mL; concentration at 2.5 min (other: intranasal (IN spray), 6 mg, Median, Time 0.0416, T3: 6 mg nalmefene HCl IN, two 0.1 mL sprays in one nostril): 0.746 ng/mL; concentration at […] (other: intranasal (IN spray), 6 mg, Median, Time 0.0833, T3: 6 mg nalmefene HCl IN, two 0.1 mL sprays in one nostril): 2.58 ng/mL; concentration at […] (other: intranasal (IN spray), 6 mg, Median, Time 0.125, T3: 6 mg nalmefene HCl IN, two 0.1 mL sprays in one nostril): 4.96 ng/mL; concentration at […] (other: intranasal (IN spray), 6 mg, Median, Time 0.166, T3: 6 mg nalmefene HCl IN, two 0.1 mL sprays in one nostril): 8.55 ng/mL; concentration at […] (other: intranasal (IN spray), 6 mg, Median, Time 0.250, T3: 6 mg nalmefene HCl IN, two 0.1 mL sprays in one nostril): 12.8 ng/mL; concentration at […] (other: intranasal (IN spray), 6 mg, Median, Time 0.750, T3: 6 mg nalmefene HCl IN, two 0.1 mL sprays in one nostril): 9.69 ng/mL; concentration at 1 h (other: intranasal (IN spray), 6 mg, Median, Time 1.00, T3: 6 mg nalmefene HCl IN, two 0.1 mL sprays in one nostril): 8.88 ng/mL; concentration at 2 h [2]: 8.6 ng/mL; concentration at 3 h [2]: 6.35 ng/mL; concentration at 4 h [2]: 4.89 ng/mL; concentration at 6 h [2]: 3.51 ng/mL; concentration at 8 h [2]: 2.46 ng/mL; concentration at 12 h [2]: 1.82 ng/mL; concentration at 18 h [2]: 1.12 ng/mL; concentration at 24 h [2]: 0.729 ng/mL; concentration at 48 h [2]: 0.176 ng/mL; concentration at 0 h (other: intranasal (IN) spray, 3 mg, Max, T1 (3 mg IN, one spray in one nostril), time 0.00): 0 ng/mL; concentration at 2.5 min (other: intranasal (IN) spray, 3 mg, Max, T1 (3 mg IN, one spray in one nostril), time 0.0416): 0.766 ng/mL; concentration at […] (other: intranasal (IN) spray, 3 mg, Max, T1 (3 mg IN, one spray in one nostril), time 0.125): 16.9 ng/mL; concentration at […] (other: intranasal (IN) spray, 3 mg, Max, T1 (3 mg IN, one spray in one nostril), time 0.166): 20.4 ng/mL; concentration at […] (other: intranasal (IN) spray, 3 mg, Max, T1 (3 mg IN, one spray in one nostril), time 0.250): 22.1 ng/mL; concentration at […] (other: intranasal (IN) spray, 3 mg, Max, T1 (3 mg IN, one spray in one nostril), time 0.333): 20.2 ng/mL; concentration at 1 h (other: intranasal (IN) spray, 3 mg, Max, T1 (3 mg IN, one spray in one nostril), time 1.00): 9.54 ng/mL
